This is an account of results in patent publication US10166279B2, “Vaccine” (Bergen Teknologioverføring AS, priority 2013, dated 2019).

Peptide text beside a SMILES is read from it.

T1 sequence (P25092 24-1073): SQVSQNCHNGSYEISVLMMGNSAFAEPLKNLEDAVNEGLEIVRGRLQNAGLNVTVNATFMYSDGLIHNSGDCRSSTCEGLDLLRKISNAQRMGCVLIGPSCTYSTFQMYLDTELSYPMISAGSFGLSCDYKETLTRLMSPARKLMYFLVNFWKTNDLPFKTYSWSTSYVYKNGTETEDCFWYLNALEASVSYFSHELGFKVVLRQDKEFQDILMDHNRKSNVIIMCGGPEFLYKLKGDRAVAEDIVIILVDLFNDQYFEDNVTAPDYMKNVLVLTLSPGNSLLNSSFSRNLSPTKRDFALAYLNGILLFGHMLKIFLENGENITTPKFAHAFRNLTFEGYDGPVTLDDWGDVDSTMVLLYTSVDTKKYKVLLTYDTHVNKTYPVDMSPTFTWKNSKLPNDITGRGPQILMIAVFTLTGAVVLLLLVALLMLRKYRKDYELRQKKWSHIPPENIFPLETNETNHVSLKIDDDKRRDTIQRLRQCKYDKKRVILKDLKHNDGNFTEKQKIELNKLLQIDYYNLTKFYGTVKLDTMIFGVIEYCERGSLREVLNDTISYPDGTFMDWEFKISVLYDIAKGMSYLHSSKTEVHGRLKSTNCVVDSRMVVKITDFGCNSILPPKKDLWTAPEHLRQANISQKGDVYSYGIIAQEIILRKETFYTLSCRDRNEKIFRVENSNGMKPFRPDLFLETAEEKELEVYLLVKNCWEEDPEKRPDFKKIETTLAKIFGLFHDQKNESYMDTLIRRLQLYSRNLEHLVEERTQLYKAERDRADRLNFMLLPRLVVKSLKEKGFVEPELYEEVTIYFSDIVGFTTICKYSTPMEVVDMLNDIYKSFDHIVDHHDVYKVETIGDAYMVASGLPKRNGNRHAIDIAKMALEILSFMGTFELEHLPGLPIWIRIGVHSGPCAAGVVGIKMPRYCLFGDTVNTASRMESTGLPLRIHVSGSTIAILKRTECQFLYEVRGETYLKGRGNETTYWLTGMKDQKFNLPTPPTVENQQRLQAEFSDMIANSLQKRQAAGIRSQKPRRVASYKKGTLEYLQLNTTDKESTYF

One data set addresses T1, GC-C receptor (Homo sapiens, UniProt P25092).
T1 construct: endogenous in cells; host or cells: T-84 cells
The data set can be described thus: GC-C receptor T-84 cell assay (toxicity, cGMP levels) of culture filtrates. The class given is cell-based. The note with it: T84 cell assay, culture filtrate. On the procedure: T-84 cells were seeded and cultured in each well of a 24 well plate. After removing the Dulbecco's modified Eagle's medium (DMEM:F12 (1:1) Lonza Walkersville, Inc.), cells were washed 3 times with 0.5 mL DMEM. Cells were incubated with 0.25 mL DMEM containing 1 mM 3-isobutyl-1-methylxanthine (IBMX) for 10 min at 37° C. 0.1 mL of sample (culture filtrate) was added to each well and incubated for 60 min at 37° C. Following incubation, the reaction medium was aspirated, and the cells were lysed with […] HCl at room temperature for 20 min. The lysates were centrifuged at top speed for 10 min and the cGMP levels were measured in control- and agonist-stimulated cells with a direct cGMP enzyme immunoassay kit (Enzo Life Sciences, Inc.) according to the manufacturer's instructions.
The culture filtrate of each mutant was added to the T-84 cells in duplicate, and a serial dilution of culture filtrates with recombinantly expressed native ST was used to generate a standard curve.
Toxicity measured in culture filtrates is a product of intrinsic toxicity (toxicity per mol) and the concentration of the ST mutant. The same is true for antigenicity. […] Since we have no method for accurately measuring ST (mutant) concentrations in culture filtrates, we are not able to directly measure intrinsic toxicities and antigenicities for the ST mutants.
To circumvent this problem we measure toxicity and antigenicity for the ST mutants relative to native ST. This allows us to describe changes in toxicity and antigenicity in mutant culture filtrates. Next, we divide the change in antigenicity by the change in toxicity for each mutant. If the same culture filtrate has been used to measure toxicity and antigenicity this allows us to eliminate the of the concentration.
For the compound `CC(C)C[C@@H]1NC(=O)[C@H](CCC(=O)O)NC(=O)[C@@H]2CSSC[C@@H]3NC(=O)[C@H](C)NC(=O)[C@@H]4CCCN4C(=O)[C@H]([C@@H](C)O)NC(=O)[C@H](CSSC[C@H](NC(=O)[C@H](Cc4ccc(O)cc4)NC(=O)[C@H](CC(N)=O)NC(=O)[C@H](CO)NC(=O)[C@H](CO)NC(=O)[C@@H](N)CC(N)=O)C(=O)N2)NC(=O)[C@H](CSSC[C@@H](C(=O)N[C@@H](Cc2ccc(O)cc2)C(=O)O)NC(=O)CNC(=O)[C@H]([C@@H](C)O)NC3=O)NC1=O` [Mutant N12T] (HELM PEPTIDE1{N.S.S.N.Y.C.C.E.L.C.C.T.P.A.C.T.G.C.Y}$PEPTIDE1,PEPTIDE1,6:R3-11:R3|PEPTIDE1,PEPTIDE1,7:R3-15:R3|PEPTIDE1,PEPTIDE1,10:R3-18:R3$$$V2.0), the “toxicity relative to native STh” value was determined as 0.03.

Staying with this data set, now noted: relative to native STh; culture filtrate; ^2 = no detectable toxicity, set to detection limit 0.0014.
`CC(C)C[C@@H]1NC(=O)[C@H](CCC(=O)O)NC(=O)[C@@H]2CSSC[C@@H]3NC(=O)[C@H](C)NC(=O)[C@@H]4CCCN4C(=O)[C@H](CC(N)=O)NC(=O)[C@H](CSSC[C@H](NC(=O)[C@H](Cc4ccc(O)cc4)NC(=O)[C@H](CC(N)=O)NC(=O)[C@H](Cc4ccccc4)NC(=O)[C@H](CO)NC(=O)[C@@H](N)CC(N)=O)C(=O)N2)NC(=O)[C@H](CSSC[C@@H](C(=O)N[C@@H](Cc2ccc(O)cc2)C(=O)O)NC(=O)CNC(=O)[C@H]([C@@H](C)O)NC3=O)NC1=O` [Mutant S03F] (HELM PEPTIDE1{N.S.F.N.Y.C.C.E.L.C.C.N.P.A.C.T.G.C.Y}$PEPTIDE1,PEPTIDE1,6:R3-11:R3|PEPTIDE1,PEPTIDE1,7:R3-15:R3|PEPTIDE1,PEPTIDE1,10:R3-18:R3$$$V2.0) came in with a Toxicity of 0.3871.

Consider `CC(C)C[C@@H]1NC(=O)[C@H](CCC(=O)O)NC(=O)[C@@H]2CSSC[C@@H]3NC(=O)[C@H](C)NC(=O)[C@@H]4CCCN4C(=O)[C@H](CCCCN)NC(=O)[C@H](CSSC[C@H](NC(=O)[C@H](Cc4ccc(O)cc4)NC(=O)[C@H](CC(N)=O)NC(=O)[C@H](CO)NC(=O)[C@H](CO)NC(=O)[C@@H](N)CC(N)=O)C(=O)N2)NC(=O)[C@H](CSSC[C@@H](C(=O)N[C@@H](Cc2ccc(O)cc2)C(=O)O)NC(=O)CNC(=O)[C@H]([C@@H](C)O)NC3=O)NC1=O` [Mutant N12K] (HELM PEPTIDE1{N.S.S.N.Y.C.C.E.L.C.C.K.P.A.C.T.G.C.Y}$PEPTIDE1,PEPTIDE1,6:R3-11:R3|PEPTIDE1,PEPTIDE1,7:R3-15:R3|PEPTIDE1,PEPTIDE1,10:R3-18:R3$$$V2.0), for which the Toxicity worked out at 0.5113.

As to `CC(C)C[C@@H]1NC(=O)[C@H](CCC(=O)O)NC(=O)[C@@H]2CSSC[C@@H]3NC(=O)[C@H](CCCNC(=N)N)NC(=O)[C@@H]4CCCN4C(=O)[C@H](CC(N)=O)NC(=O)[C@H](CSSC[C@H](NC(=O)[C@H](Cc4ccc(O)cc4)NC(=O)[C@H](CC(N)=O)NC(=O)[C@H](CO)NC(=O)[C@H](CO)NC(=O)[C@@H](N)CC(N)=O)C(=O)N2)NC(=O)[C@H](CSSC[C@@H](C(=O)N[C@@H](Cc2ccc(O)cc2)C(=O)O)NC(=O)CNC(=O)[C@H]([C@@H](C)O)NC3=O)NC1=O` [Mutant A14R] (HELM PEPTIDE1{N.S.S.N.Y.C.C.E.L.C.C.N.P.R.C.T.G.C.Y}$PEPTIDE1,PEPTIDE1,6:R3-11:R3|PEPTIDE1,PEPTIDE1,7:R3-15:R3|PEPTIDE1,PEPTIDE1,10:R3-18:R3$$$V2.0), the Toxicity is < 0.0014^2.

As for `C[C@@H]1NC(=O)[C@@H]2CCCN2C(=O)[C@H](CC(N)=O)NC(=O)[C@@H]2CSSC[C@H](NC(=O)[C@H](Cc3ccc(O)cc3)NC(=O)[C@H](CC(N)=O)NC(=O)[C@H](CO)NC(=O)[C@H](CO)NC(=O)[C@@H](N)CC(N)=O)C(=O)N[C@H]3CSSC[C@H](NC1=O)C(=O)N[C@@H]([C@@H](C)O)C(=O)NCC(=O)N[C@H](C(=O)N[C@@H](Cc1ccc(O)cc1)C(=O)O)CSSC[C@H](NC(=O)CNC(=O)[C@H](CCC(=O)O)NC3=O)C(=O)N2` [Mutant L09G] (HELM PEPTIDE1{N.S.S.N.Y.C.C.E.G.C.C.N.P.A.C.T.G.C.Y}$PEPTIDE1,PEPTIDE1,6:R3-11:R3|PEPTIDE1,PEPTIDE1,7:R3-15:R3|PEPTIDE1,PEPTIDE1,10:R3-18:R3$$$V2.0), the Toxicity was < 0.0014^2.

Consider `CC(C)C[C@@H]1NC(=O)[C@H](CCC(=O)O)NC(=O)[C@@H]2CSSC[C@@H]3NC(=O)[C@H](C)NC(=O)[C@@H]4CCCN4C(=O)[C@H](CC(N)=O)NC(=O)[C@H](CSSC[C@H](NC(=O)[C@H](Cc4ccc(O)cc4)NC(=O)[C@H](CC(N)=O)NC(=O)[C@H](CO)NC(=O)[C@H](CC(N)=O)NC(=O)[C@@H](N)CC(N)=O)C(=O)N2)NC(=O)[C@H](CSSC[C@@H](C(=O)N[C@@H](Cc2ccc(O)cc2)C(=O)O)NC(=O)CNC(=O)[C@H]([C@@H](C)O)NC3=O)NC1=O` [Mutant S02N] (HELM PEPTIDE1{N.N.S.N.Y.C.C.E.L.C.C.N.P.A.C.T.G.C.Y}$PEPTIDE1,PEPTIDE1,6:R3-11:R3|PEPTIDE1,PEPTIDE1,7:R3-15:R3|PEPTIDE1,PEPTIDE1,10:R3-18:R3$$$V2.0), for which the Toxicity amounted to 0.7308.

Take `CC(C)C[C@@H]1NC(=O)[C@H](CCC(=O)O)NC(=O)[C@@H]2CSSC[C@@H]3NC(=O)[C@H](C)NC(=O)[C@@H]4CCCN4C(=O)[C@H](CC(N)=O)NC(=O)[C@H](CSSC[C@H](NC(=O)[C@H](Cc4ccc(O)cc4)NC(=O)[C@H](CC(C)C)NC(=O)[C@H](CO)NC(=O)[C@H](CO)NC(=O)[C@@H](N)CC(N)=O)C(=O)N2)NC(=O)[C@H](CSSC[C@@H](C(=O)N[C@@H](Cc2ccc(O)cc2)C(=O)O)NC(=O)CNC(=O)[C@H]([C@@H](C)O)NC3=O)NC1=O` [Mutant N04L] (HELM PEPTIDE1{N.S.S.L.Y.C.C.E.L.C.C.N.P.A.C.T.G.C.Y}$PEPTIDE1,PEPTIDE1,6:R3-11:R3|PEPTIDE1,PEPTIDE1,7:R3-15:R3|PEPTIDE1,PEPTIDE1,10:R3-18:R3$$$V2.0): the Toxicity came to 0.2934.

A further data set deals with anti-STh mAb ST:G8. Nature of the data set: Competitive ELISA with anti-STh antibodies (polyclonal, mAb ST:G8). The following applies: polyclonal and monoclonal (ST:G8) anti-STh antibodies. The format is binding. On the procedure: Competitive STh ELISA was performed as previously described (PMID: 6520401; Lockwood and Robertson, J Immunol Methods. 1984 Dec. 31; 75(2):295-307) with minor modifications. A U-shaped microtiter plate (Linbro, Fisher Scientific, Göteborg, Sweden) was coated with STh-ovalbumin conjugate diluted in ELISA buffer (NaCl 128 mM, KCl 2.68 mM, KH2PO4 1.47 mM, Na2HPO4 8.10 mM; pH 7.0-7.2). The plate was covered with plate sealer and incubated overnight at 37° C. Contents of the wells were discarded by inversion. Additional protein binding sites were blocked by incubating with ovalbumin 1% (w/v) (Sigma-Aldrich) diluted in ELISA buffer. After incubation for 1 h at 37° C., wells were emptied and washed three times with wash buffer (ELISA buffer containing ovalbumin 0.05% (w/v) and Tween-20 0.05% (v/v)). 75 μL of samples containing STh and 75 μL of diluted antisera (Protein-A purified rabbit anti-STa kindly supplied by John D. Clements; Department of Microbiology and Immunology, Tulane University, New Orleans, USA) were added. Both dilutions were done in ELISA buffer containing ovalbumin 0.05% (w/v). Appropriate dilutions and concentrations of reagents were determined by checkerboard titrations. The plate was incubated for 2 h at 37° C., in a rotary incubator shaker (Infors HT, Bottmingen/Basel Switzerland) at 180 rpm. Wells were emptied and washed three times with wash buffer. 100 μL of anti-Rabbit IgG Alkaline Phosphatase Conjugate developed in goat (Sigma-Aldrich) diluted 1:400 in ELISA buffer with ovalbumin 0.05% (w/v) were add and incubated with not shaking for 1 h at 37° C. Wells were emptied and washed three times with wash buffer followed by addition of 100 μL of 4-Nitrophenyl phosphate disodium salt hexahydrate at 1 mg/mL in diethanolamine buffer (diethanolamine 9.7% (v/v), MgCl2×6H2O 0.49 mM; pH 9.8). After incubation for 30 min, the reaction was stopped with 50 μL 2N NaOH (VWR international) in each well. The absorbance was read in an automatic plate reader at 405 nm (FLUOstar OPTIMA; BMG Labtech, Germany). All samples were measured in triplicate.
The anti-STh mAb ST:G8 was kindly supplied by S. Visweswariah [Garrett & Visweswariah; PMID: 8950201]. The anti-STp mAbs clone 29, clone 30, and clone 31 were obtained from Fitzgerald Industries International.
ELISA-plates (Nunc Amino Immobilizer) were coated with STh-OvA conjugate in PBS, volume 100 μl per well (synthetic STh conjugated to OvA: For ST:G8 0.04 μl/well, for clone 29 and clone 30 0.01 μl/well). Plates were incubated overnight at 4 C. Subsequently, plates were emptied and blocked with PBS-T 1% OvA for 1h at 20° C. with shaking 180 rpm. […] Developing was stopped by adding 50 μl NaOH 2M to each well, and OD was read at 405 nm with a Fluostar Optima plate reader.
Take NSSNYCCELCCNPACTGCY [STh]: the “binding by anti-STh antibodies” value is on record as “bound”.

For the compound NTFYCCELCCNPACAGCY [STp], the “binding by anti-STh antibodies” value was “bound”.

Turning to “guanylin (PGTCEICAYAACTGC) [endogenous peptide ligand of the GC-C receptor]”, the “binding by anti-STh antibodies” value is recorded as “not”.
